# From ChEMBL document CHEMBL3352337, “Scaffold-switching: an exploration of 5,6-fused bicyclic heteroaromatics systems to afford antituberculosis activity akin to the imidazo[1,2-a]pyridine-3-carboxylates” (Bioorg Med Chem Lett, 2014)
# Tested on: Mycobacterium tuberculosis variant bovis BCG
# Test: Antimycobacterial activity against Mycobacterium bovis BCG ATCC 35734 in 7H12 medium after 6 days and 18 hrs after adding resazurin dye/Tween 80 by Microplate Alamar Blue assay
# Format: functional
row,SMILES,MIC [µM]
1,Cc1cc(C)n2nc(C(=O)NCc3ccccc3)nc2n1,> 128
2,Cc1ccc2nc(C)c(C(=O)NCc3ccccc3)n2c1,0.96
3,Cc1cnc2nc(C)c(C(=O)NCc3ccccc3)n2c1,7.8
4,Cc1ccc2nc(C)c(C(=O)NCc3ccccc3)n2n1,> 128
5,Cc1ccc2c(C(=O)NCc3ccccc3)c(C)[nH]c2c1,> 128
6,Cc1ccc2c(C(=O)NCc3ccccc3)n[nH]c2c1,> 128
7,Cc1ccn2c(C(=O)NCc3ccccc3)nnc2c1,> 128
8,Cc1ccn2c(C)c(C(=O)NCc3ccccc3)nc2c1,> 128
9,NNC(=O)c1ccncc1 [ISONIAZID],0.41
10,COc1c(N2C[C@@H]3CCCN[C@@H]3C2)c(F)cc2c(=O)c(C(=O)O)cn(C3CC3)c12 [MOXIFLOXACIN],0.06
11,CO[C@H]1/C=C/O[C@@]2(C)Oc3c(C)c(O)c4c(O)c(c(/C=N/N5CCN(C)CC5)c(O)c4c3C2=O)NC(=O)/C(C)=C\C=C\[C@H](C)[C@H](O)[C@@H](C)[C@@H](O)[C@@H](C)[C@H](OC(C)=O)[C@@H]1C [RIFAMPIN],< 0.004
